Each molecule was assayed against Endothelial lipase (EL) (Homo sapiens (Human), UniProt Q9Y5X9) (assay: Endothelial lipase (EL) enzymatic assay with fluorescent substrate A10070 in DMPG vesicles).
Assay type: biochemical
Method in brief: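 Substrate A10070 sits in sonicated DMPG vesicles at 0.11 mole fraction. Lipase and compound preincubated 30 min, 37° C, in HEPES pH 8.0 buffer with CaCl2.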

Sequence of Endothelial lipase (EL) (Q9Y5X9 21-500): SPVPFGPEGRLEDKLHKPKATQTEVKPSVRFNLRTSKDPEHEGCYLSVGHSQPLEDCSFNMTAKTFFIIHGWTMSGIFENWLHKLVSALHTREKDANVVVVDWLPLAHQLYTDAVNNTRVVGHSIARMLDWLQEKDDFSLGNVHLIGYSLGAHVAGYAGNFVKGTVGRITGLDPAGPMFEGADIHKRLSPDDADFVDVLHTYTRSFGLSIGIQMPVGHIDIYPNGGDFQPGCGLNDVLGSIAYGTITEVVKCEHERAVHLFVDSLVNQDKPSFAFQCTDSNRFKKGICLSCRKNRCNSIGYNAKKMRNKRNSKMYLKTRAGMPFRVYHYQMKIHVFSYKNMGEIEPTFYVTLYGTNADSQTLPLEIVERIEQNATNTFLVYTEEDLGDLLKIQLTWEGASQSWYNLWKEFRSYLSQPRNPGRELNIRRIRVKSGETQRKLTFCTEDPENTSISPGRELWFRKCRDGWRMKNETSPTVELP

Row | SMILES | IC50
1 | CS(=O)(=O)C(C(=O)NCC(=O)NC1CC1)c1nc2cc(F)c(-c3ccc(-n4ccccc4=O)cc3)cc2s1 (centres unmarked) [Example 200, N-[(cyclopropyl-carbamoyl)methyl]-2-{5-fluoro-6-[4-(2-oxo-1,2-dihydropyridin-1-yl)phenyl]-1,3-benzothiazol-2-yl}-2-methanesulfonyl-acetamide] | 8 nM
2 | CS(=O)(=O)C(C(=O)NCC(=O)NC1CC1)c1nc2cc(F)c(-c3ccc(N4CCCCC4=O)cc3)cc2s1 (centres unmarked) [Example 201, N-[(cyclopropyl-carbamoyl)methyl]-2-{5-fluoro-6-[4-(2-oxopiperidin-1-yl)phenyl]-1,3-benzothiazol-2-yl}-2-methanesulfonyl-acetamide] | 10 nM
3 | CS(=O)(=O)C(C(=O)NCC(=O)NC1CC1)c1nc2cc(F)c(-c3ccc(-c4ccccc4)nc3)cc2s1 (centres unmarked) [Example 203, N-[(cyclopropyl-carbamoyl)methyl]-2-[5-fluoro-6-(6-phenylpyridin-3-yl)-1,3-benzothiazol-2-yl]-2-methanesulfonyl-acetamide] | 3 nM
4 | Cc1cc2nc(C(C(=O)NCC(=O)NC3CC3)S(=O)(=O)C(C)C)sc2cc1-c1ccc2[nH]c(=O)ccc2c1 (centres unmarked) [Example 204, N-[(cyclopropyl-carbamoyl)methyl]-2-[5-methyl-6-(2-oxo-1,2-dihydroquinolin-6-yl)-1,3-benzothiazol-2-yl]-2-(propane-2-sulfonyl) acetamide] | 2 nM
5 | Cc1cc2nc(C(C(=O)NCC(=O)NC3CC3)S(=O)(=O)C(C)C)sc2cc1-c1ccc(=O)n(C(C)C)c1 (centres unmarked) [Example 207, N-[(cyclopropyl-carbamoyl)methyl]-2-{5-methyl-6-[6-oxo-1-(propan-2-yl)-1,6-dihydropyridin-3-yl]-1,3-benzothiazol-2-yl}-2-(propane-2-sulfonyl) acetamide] | 10 nM
6 | COCCNC(=O)c1cccc(-c2cc3sc(C(C(=O)NCC(=O)NC4CC4)S(=O)(=O)C(C)C)nc3cc2C)c1 (centres unmarked) [Example 210, 3-[2-({[(cyclopropyl-carbamoyl)methyl]carbamoyl} (propane-2-sulfonyl)methyl)-5-methyl-1,3-benzothiazol-6-yl]-N-(2-methoxyethyl) benzamide] | 12 nM
7 | COc1ncc(-c2cc3sc(C(C(=O)NCC(=O)NC4CC4)S(=O)(=O)C(C)C)nc3cc2C)cc1F (centres unmarked) [Example 211, N-[(cyclopropyl-carbamoyl)methyl]-2-[6-(5-fluoro-6-methoxypyridin-3-yl)-5-methyl-1,3-benzothiazol-2-yl]-2-(propane-2-sulfonyl) acetamide] | 14 nM
8 | O=C(CNC(=O)C(c1nc2ccc(-c3ccc(C(=O)N4CCOCC4)cc3)cc2s1)S(=O)(=O)Cc1ccc(F)cc1)NC1CC1 (centres unmarked) [Example 213, N-[(cyclopropyl-carbamoyl)methyl]-2-[(4-fluorophenyl)methanesulfonyl]-2-{6-[4-(morpholine-4-carbonyl)phenyl]-1,3-benzothiazol-2-yl}acetamide] | 15 nM
9 | CN(C)C(=O)c1ccc(-c2ccc3nc(C(C(=O)NCC(=O)NC4CC4)S(=O)(=O)Cc4ccc(F)cc4)sc3c2)cc1 (centres unmarked) [Example 214, 4-[2-({[(cyclopropyl-carbamoyl)methyl]carbamoyl}(4-fluorophenyl)methanesulfonyl-methyl)-1,3-benzothiazol-6-yl]-N,N-dimethyl-benzamide] | 18 nM
10 | Cc1cc2nc(C(C(=O)NCC(=O)NC3CC3)S(=O)(=O)C(C)C)sc2cc1-c1ccc(C(=O)N(C)C)cc1 (centres unmarked) [Example 215, 4-[2-({[(cyclopropyl-carbamoyl)methyl]carbamoyl} (propane-2-sulfonyl)methyl)-5-methyl-1,3-benzothiazol-6-yl]-N,N-dimethyl-benzamide] | 19 nM
11 | COCCS(=O)(=O)C(C(=O)NCC(=O)NC1CC1)c1nc2c(F)cc(-c3ccc(C(F)(F)F)nc3)cc2s1 (centres unmarked) [Example 217, N-[(cyclopropyl-carbamoyl)methyl]-2-{4-fluoro-6-[6-(trifluoromethyl)pyridin-3-yl]-1,3-benzothiazol-2-yl}-2-(2-methoxyethane-sulfonyl) acetamide] | 26 nM
12 | COCCNC(=O)c1ccc(-c2cc(F)c3nc(C(C(=O)NCC(=O)NC4CC4)S(=O)(=O)CCOC)sc3c2)cc1 (centres unmarked) [Example 218, 4-[2-({[(cyclopropyl-carbamoyl)methyl]carbamoyl}(2-methoxyethane-sulfonyl)methyl)-4-fluoro-1,3-benzothiazol-6-yl]-N-(2-methoxyethyl) benzamide] | 28 nM

Other lines, results leading:

Row | IC50 | SMILES
13 | 24 nM | CS(=O)(=O)C(C(=O)NCC(=O)NC1CC1)c1nc2cc(F)c(-c3ccc(C#N)nc3)cc2s1 (centres unmarked) [Example 199, 2-[6-(6-cyanopyridin-3-yl)-5-fluoro-1,3-benzothiazol-2-yl]-N-[(cyclopropyl-carbamoyl)methyl]-2-methanesulfonyl-acetamide]
14 | 5 nM | CS(=O)(=O)C(C(=O)NCC(=O)NC1CC1)c1nc2cc(F)c(-c3cnc(-c4ccccc4)nc3)cc2s1 (centres unmarked) [Example 202, N-[(cyclopropyl-carbamoyl)methyl]-2-[5-fluoro-6-(2-phenylpyrimidin-5-yl)-1,3-benzothiazol-2-yl]-2-methanesulfonyl-acetamide]
15 | 8 nM | O=C(CNC(=O)C(c1nc2ccc(-c3ccc(OCC4CC4)nc3)cc2s1)S(=O)(=O)Cc1ccc(F)cc1)NC1CC1 (centres unmarked) [Example 205, N-[(cyclopropyl-carbamoyl)methyl]-2-{6-[6-(cyclopropyl-methoxy)pyridin-3-yl]-1,3-benzothiazol-2-yl}-2[(4-fluorophenyl)methanesulfonyl] acetamide]
16 | 9 nM | COCCS(=O)(=O)C(C(=O)NCC(=O)NC1CC1)c1nc2c(F)cc(-c3cnc(OC)c(F)c3)cc2s1 (centres unmarked) [Example 206, N-[(cyclopropyl-carbamoyl)methyl]-2-[4-fluoro-6-(5-fluoro-6-methoxypyridin-3-yl)-1,3-benzothiazol-2-yl]-2-(2-methoxyethane-sulfonyl) acetamide]
17 | 11 nM | COCCS(=O)(=O)C(C(=O)NCC(=O)NC1CC1)c1nc2c(F)cc(-c3ccc(C(=O)N4CCOCC4)cc3)cc2s1 (centres unmarked) [Example 208, N-[(cyclopropyl-carbamoyl)methyl]-2-{4-fluoro-6-[4-(morpholine-4-carbonyl)phenyl]-1,3-benzothiazol-2-yl}-2-(2-methoxyethane-sulfonyl) acetamide]
18 | 11 nM | Cc1cc2nc(C(C(=O)NCC(=O)NC3CC3)S(=O)(=O)C(C)C)sc2cc1-c1ccc(C(F)(F)F)nc1 (centres unmarked) [Example 209, N-[(cyclopropyl-carbamoyl)methyl]-2-{5-methyl-6-[6-(trifluoromethyl)pyridin-3-yl]-1,3-benzothiazol-2-yl}-2-(propane-2-sulfonyl) acetamide]
19 | 15 nM | Cc1ncc(-c2cc3sc(C(C(=O)NCC(=O)NC4CC4)S(=O)(=O)C(C)C)nc3cc2C)cn1 (centres unmarked) [Example 212, N-[(cyclopropyl-carbamoyl)methyl]-2-[5-methyl-6-(2-methylpyrimidin-5-yl)-1,3-benzothiazol-2-yl]-2-(propane-2-sulfonyl) acetamide]
20 | 19 nM | COCCS(=O)(=O)C(C(=O)NCC(=O)NC1CC1)c1nc2c(F)cc(-c3ccc4[nH]c(=O)ccc4c3)cc2s1 (centres unmarked) [Example 216, N-[(cyclopropyl-carbamoyl)methyl]-2-[4-fluoro-6-(2-oxo-1,2-dihydroquinolin-6-yl)-1,3-benzothiazol-2-yl]-2-(2-methoxyethane-sulfonyl) acetamide]
